The source of these data is article PMC8833187 (Proceedings of the National Academy of Sciences of the …, 2022).

For assay [1], the system named is CaM/4Ca^2+ with R1 labels at A17C–R1 and A128C–R1. The following applies: labelled versus unlabelled CaM/4Ca^2+; cited from earlier work.
In assay [2] the test system is CaM/4Ca^2+. Nature of the assay: Combined time-resolved DEER and ssNMR: binding pathway of M13 to CaM/4Ca^2+. Set-up: species or system Human.

On to KRRWKKNFIAVSAANRFKKISSSGAL [M13], for which the “reduction of affinity for M13 by R1 labels at A17C–R1 and A128C–R1” value in assay [1] is “about 2.5 fold”. In assay [2], the “τ, conformational rearrangement of state B to state C” value was in the range of 7 to 18 ms and the “τ, state A* to collapsed intermediate B” value was 1.5 to 2.5 ms. For the same sequence, the “timescale τ, state A converted to final compact complex state C” value in assay [2] (abstract) was at most 600 μs.
